Reference: ChEMBL document CHEMBL1201862, “PubChem BioAssay data set” (2004)
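Cells were grown in 96-well plates and exposed to each compound for 48 hours at five concentrations; endpoints were interpolated linearly between bracketing concentrations, or set to the highest concentration if not reached. GI50 marks 50% less growth.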 Activity calls are given as the source filed them. Cut-off read from the data, not from the text of the source: active = GI50 up to about 1.1 µM and inactive = higher. *1 amine or outer side, *2 acyl side, *3 side chain or, on linkers, in order; H or OH if unused. Where a SMILES comes first, the peptide text is derived from it. Bridges are numbered along the chain shown (N, C = ends). [ ]: non-standard residue; d: D form. ξ: configuration not given here. X10 = CCC(C)C(N[*:1])C(O)CC(=O)O[C@H](C(=O)C(C)C(=O)[*:2])C(C)C; NMeY = CN[C@@H](Cc1ccc(O)cc1)C(=O)O; ξNMeL = CNC(CC(C)C)C(=O)O; ξT = CC(O)C(N)C(=O)O

How the values were obtained:
Assay in all cases: DTP human tumour cell line panel, 48 h
T47D = test system: T47D
SF-295 = test system: SF-295
786-0 = test system: 786-0
SK-MEL-2 = test system: SK-MEL-2
K562 = test system: K562
TK-10 = test system: TK-10
HL-60 = test system: HL-60
MOLT-4 = test system: MOLT-4
M14 = test system: M14
UO-31 = test system: UO-31
SNB-19 = test system: SNB-19
HOP-92 = test system: HOP-92
SN12C = test system: SN12C
SK-MEL-28 = test system: SK-MEL-28
SF-539 = test system: SF-539
OVCAR-4 = test system: OVCAR-4
A549 = test system: A549
MCF7 = test system: MCF7
MDA-N = test system: MDA-N

SMILES	GI50 (T47D)	GI50 (SF-295)	GI50 (786-0)	GI50 (SK-MEL-2)	GI50 (K562)	GI50 (TK-10)	GI50 (HL-60)	GI50 (MOLT-4)	GI50 (M14)	GI50 (UO-31)	GI50 (SNB-19)	GI50 (HOP-92)	GI50 (SN12C)	GI50 (SK-MEL-28)	GI50 (SF-539)	GI50 (OVCAR-4)	GI50 (A549)	GI50 (MCF7)	GI50 (MDA-N)
O=C(CCC(=O)c1ccc(Cl)cc1)NO	> 100 µM (inactive)	> 100 µM (inactive)	> 100 µM (inactive)	> 100 µM (inactive)	> 100 µM (inactive)	> 100 µM (inactive)	> 100 µM (inactive)	> 100 µM (inactive)	> 100 µM (inactive)	> 100 µM (inactive)	> 100 µM (inactive)	> 100 µM (inactive)	> 100 µM (inactive)	> 100 µM (inactive)	> 100 µM (inactive)	> 100 µM (inactive)	> 100 µM (inactive)	> 100 µM (inactive)	> 100 µM (inactive)
CSC1=C(C)C(/C=N/Nc2ccc([N+](=O)[O-])cc2)=C(C)N(c2ccccc2)S1(=O)=O	3.09 µM (inactive)	6.17 µM (inactive)	> 100 µM (inactive)	> 100 µM (inactive)	7.71 µM (inactive)	> 100 µM (inactive)	1.28 µM (inactive)	5.27 µM (inactive)	38.6 µM (inactive)	29.3 µM (inactive)	> 100 µM (inactive)	> 100 µM (inactive)	> 100 µM (inactive)	> 100 µM (inactive)	> 100 µM (inactive)	> 100 µM (inactive)	36.3 µM (inactive)	32.4 µM (inactive)	> 100 µM (inactive)
COc1cc2c(/C=C3/C(=O)Nc4ccccc43)c(Cl)[nH]c2cc1C	13.7 µM (inactive)	0.0252 µM (active)	0.0605 µM (active)	0.082 µM (active)	0.0601 µM (active)	0.173 µM (active)	0.035 µM (active)	0.118 µM (active)	0.0366 µM (active)	0.0745 µM (active)	0.0486 µM (active)	1.43 µM (inactive)	0.0845 µM (active)	9.12 µM (inactive)	0.0234 µM (active)	0.0521 µM (active)	0.0619 µM (active)	0.0502 µM (active)	0.0191 µM (active)
CCC(C)C1NC(=O)C(NC(=O)C(CC(C)C)N(C)C(=O)[C@@H]2CCCN2)C(C)OC(=O)[C@H](Cc2ccc(OC)cc2)N(C)C(=O)[C@@H]2CCCN2C(=O)[C@H](CC(C)C)NC(=O)C(C)C(=O)[C@H](C(C)C)OC(=O)CC1O (stereo partly specified) (H-P[ξNMeL][ξT][X10]LP[NMeY](Me); ester 3-C)	0.000185 µM (active)	0.00144 µM (active)	0.000564 µM (active)	< 0.01 µM (active)	0.000325 µM (active)	0.00355 µM (active)	0.00389 µM (active)	0.000244 µM (active)	0.000222 µM (active)	0.0214 µM (active)	0.000721 µM (active)	0.00121 µM (active)	0.000411 µM (active)	0.00014 µM (active)	0.000322 µM (active)	0.000139 µM (active)	0.000533 µM (active)	< 0.0001 µM (active)	0.000346 µM (active)
Cc1c2cccc-2ccc2c1[nH]c1ccc(Br)cc12	1.69 µM (inactive)	4.23 µM (inactive)	14.3 µM (inactive)	5.62 µM (inactive)	2.96 µM (inactive)	17.1 µM (inactive)	4.15 µM (inactive)		6.12 µM (inactive)	4.65 µM (inactive)	7.64 µM (inactive)	3.61 µM (inactive)	12.9 µM (inactive)	7.03 µM (inactive)	4.81 µM (inactive)	1.96 µM (inactive)	4.2 µM (inactive)	4.06 µM (inactive)	6.32 µM (inactive)
[N-]=[N+]=Nc1c(Cl)c(=O)n(-c2ccccc2)c2ccccc12	11.8 µM (inactive)	30.7 µM (inactive)	18.3 µM (inactive)	20.7 µM (inactive)	14.8 µM (inactive)	> 10 µM (inactive)	40.3 µM (inactive)	8.43 µM (inactive)	16.6 µM (inactive)	23.9 µM (inactive)	28.9 µM (inactive)	19.3 µM (inactive)	22 µM (inactive)	17.6 µM (inactive)	22.3 µM (inactive)	17.4 µM (inactive)	28.4 µM (inactive)	21.8 µM (inactive)	24.5 µM (inactive)
Cc1ccc(O)c(-c2cc(-c3cccc(Br)c3)on2)c1	28.2 µM (inactive)	32.4 µM (inactive)	40.4 µM (inactive)	21.5 µM (inactive)	29.6 µM (inactive)	21.9 µM (inactive)	27 µM (inactive)	20.8 µM (inactive)	36.8 µM (inactive)	70.3 µM (inactive)	39.3 µM (inactive)	22.2 µM (inactive)	23.8 µM (inactive)	23.8 µM (inactive)	28.8 µM (inactive)	11.6 µM (inactive)	29.4 µM (inactive)	13.2 µM (inactive)	25.6 µM (inactive)
Cc1cc(C)nc(NS(=O)(=O)c2ccc(NNc3c4ccccc4nc4c(C(=O)Nc5ccc(S(=O)(=O)N=C(N)N)cc5)cccc34)cc2)n1	25.8 µM (inactive)	77.3 µM (inactive)	65.5 µM (inactive)	3.64 µM (inactive)	31.4 µM (inactive)	> 100 µM (inactive)	37.5 µM (inactive)	34.9 µM (inactive)	97.9 µM (inactive)	27.7 µM (inactive)	61.1 µM (inactive)	35.6 µM (inactive)	64.1 µM (inactive)	17.6 µM (inactive)	67 µM (inactive)	65.2 µM (inactive)	> 100 µM (inactive)	76 µM (inactive)	49.5 µM (inactive)
O=c1oc2c(Br)c(O)c(Br)cc2c2ccccc12	25 µM (inactive)	34 µM (inactive)	42.1 µM (inactive)	28.2 µM (inactive)	23.1 µM (inactive)	34.9 µM (inactive)	23 µM (inactive)	27.4 µM (inactive)	31.9 µM (inactive)		30.3 µM (inactive)	22.5 µM (inactive)	26.5 µM (inactive)	35.3 µM (inactive)	23.9 µM (inactive)	29.7 µM (inactive)	32.5 µM (inactive)	16.3 µM (inactive)	31.5 µM (inactive)
CCNC(=S)NNC(=O)CSc1nc2ccc(I)cc2c(=O)n1Cc1ccccc1	5.27 µM (inactive)	25.4 µM (inactive)	29.2 µM (inactive)	29.4 µM (inactive)	10.6 µM (inactive)	> 51.2 µM (inactive)	1.81 µM (inactive)	7.48 µM (inactive)	38.4 µM (inactive)	0.0299 µM (active)	> 87.5 µM (inactive)	17.3 µM (inactive)	10.2 µM (inactive)	63.8 µM (inactive)	45.8 µM (inactive)	10.8 µM (inactive)	25.5 µM (inactive)	16.9 µM (inactive)	13.5 µM (inactive)
COc1ccc(-c2nc(N)c3ncn(C4OC(CO)C(O)C4O)c3n2)cc1 (stereo unspecified)	> 100 µM (inactive)	> 100 µM (inactive)	> 100 µM (inactive)	> 100 µM (inactive)	> 100 µM (inactive)	> 100 µM (inactive)	> 100 µM (inactive)	70.6 µM (inactive)	> 100 µM (inactive)		> 100 µM (inactive)	> 100 µM (inactive)	> 100 µM (inactive)	> 100 µM (inactive)	> 100 µM (inactive)	> 100 µM (inactive)	> 100 µM (inactive)	> 100 µM (inactive)	> 100 µM (inactive)
COc1cc(Oc2nc3c(N)cc(C(F)(F)F)cc3nc2-c2ccccc2)cc(OC)c1OC	5.81 µM (inactive)	1.95 µM (inactive)	3.97 µM (inactive)	3.24 µM (inactive)	1.23 µM (inactive)	26.1 µM (inactive)	1.16 µM (inactive)	3.44 µM (inactive)	5.81 µM (inactive)	11.2 µM (inactive)	3.17 µM (inactive)	14.7 µM (inactive)	8.07 µM (inactive)	14.8 µM (inactive)	3.4 µM (inactive)	19.2 µM (inactive)	5 µM (inactive)	3.17 µM (inactive)	0.412 µM (active)
CCOC1C=CCCO1 (stereo unspecified)	0.701 µM (active)	> 100 µM (inactive)	> 100 µM (inactive)	> 100 µM (inactive)	> 100 µM (inactive)	> 100 µM (inactive)	> 100 µM (inactive)	> 100 µM (inactive)	> 100 µM (inactive)	2.99 µM (inactive)	> 100 µM (inactive)	> 100 µM (inactive)	> 100 µM (inactive)	> 100 µM (inactive)	> 100 µM (inactive)	> 100 µM (inactive)	> 100 µM (inactive)	> 100 µM (inactive)	> 100 µM (inactive)
COc1ccc(OC)c2sc(N3C(=O)/C(=C/c4ccccc4S)N=C3c3ccccc3)nc12	24.2 µM (inactive)	52.4 µM (inactive)	59.2 µM (inactive)	25.8 µM (inactive)	26 µM (inactive)	> 100 µM (inactive)	26.1 µM (inactive)	8.83 µM (inactive)	36.5 µM (inactive)	28.1 µM (inactive)	69.2 µM (inactive)	> 100 µM (inactive)	26.9 µM (inactive)	> 100 µM (inactive)	28.6 µM (inactive)	39.5 µM (inactive)	42.8 µM (inactive)	18.7 µM (inactive)	21.8 µM (inactive)
Cc1ccsc1C(=S)Nc1ccc(Cl)c(/C=N/OC(C)C)c1	17.8 µM (inactive)	30.1 µM (inactive)	42.5 µM (inactive)	55.1 µM (inactive)		65.3 µM (inactive)	10.3 µM (inactive)	11.2 µM (inactive)	37.7 µM (inactive)	21.1 µM (inactive)	44.5 µM (inactive)	> 100 µM (inactive)	32.5 µM (inactive)	67.8 µM (inactive)	> 100 µM (inactive)	14.8 µM (inactive)	46.6 µM (inactive)	15.6 µM (inactive)	37.8 µM (inactive)
